Results: patent US20190359645A1, “2'3'-CYCLIC DINUCLEOTIDES COMPRISING CARBOCYCLIC NUCLEOTIDE” (Institute of Organic Chemistry and Biochemistry ASCR, V.V.I., priority 2018, published 2019)

What was measured:
[1] = molecular target: WT STING (Homo sapiens, UniProt Q86WV6, H232R); test: Differential scanning fluorimetry (DSF) with WT STING; type: binding; set-up: truncated human WT STING or AQ STING (amino acid residues 140-343); 8xHis (N, cleaved yes); SUMO (N, cleaved yes); made in house; host or cells: E. coli Rosetta-gami B (DE3); conditions: thermal shift, truncated human WT STING 0.1 mg/ml, 150 μM CDN; for ΔTm at 150 µM: read-out: DSF ΔTm WT STING
Chain of WT STING (Q86WV6 140-343 H232R): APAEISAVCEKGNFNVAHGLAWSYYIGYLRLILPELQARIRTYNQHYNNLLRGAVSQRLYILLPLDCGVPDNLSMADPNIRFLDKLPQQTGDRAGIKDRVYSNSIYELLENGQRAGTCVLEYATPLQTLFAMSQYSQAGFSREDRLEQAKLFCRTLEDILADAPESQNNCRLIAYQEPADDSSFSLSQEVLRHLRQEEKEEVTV
Excerpt: (§1) Both WT and AQ human STING (G230A-R^293Q) cDNA were amplified by the use of PCR (Phusion® High-Fidelity DNA Polymerase, cat. # M0530S, NEB, Ipswich, USA) using oligonucleotides hSTING140-BamH-For ([…]) (SEQ ID NO:5) and hSTING379-Not-Rev3 ([…]) (SEQ ID NO:6) from pUNOI-hSTING-WT (cat. # punol-hstingwt, InvivoGen, San Diego, USA) and pUNO1-hSTING-HAQ plasmids (punol-hsting-haq, InvivoGen, San Diego, USA). Purified PCR products were cleaved with restriction enzymes BamHI (cat. # R^0136S, NEB, Ipswich, USA) and NotI (cat. # R^0189S, NEB, Ipswich, USA) and cloned into the pSUMO vector linearized with the identical enzymes. Plasmid pSUMO was created by introducing 8-His-SUMO sequence between NdeI and BamHI sites of pHis-parallel2 plasmid (Clontech, Moutain View, USA). pSUMO-STING WT or pSUMO-STING AQ plasmids thus encoded truncated human WT STING or AQ STING (amino acid residues 140-343) with N-terminal 8×His and SUMO tag.
(§2) The recombinant WT STING and AQ STING proteins were overexpressed in Rosetta-gami B (DE3) competent cells (cat. #71136-3, Merck Millipore, Billerica, USA). Bacterial pellets were re-suspended in ice-cold lysis buffer containing 50 mmol·l^−1 TrisCl (cat. # T1503, Sigma Aldrich, Czech Republic) pH 8.0, 300 mmol·l^−1 NaCl, 3 mmol·l^−1 (3-mercaptoethanol (cat. # M6250, Sigma Aldrich, Czech Republic), 10% glycerol (cat. #G5516, Sigma Aldrich, Czech Republic) and 20 mmol·l^−1 imidazole (cat. #15513, Sigma Aldrich, Czech Republic) using Dounce homogenizer. DNase I (cat. # D5025, Sigma Aldrich, Czech Republic) and RNase A (cat. # R^6513, Sigma Aldrich, Czech Republic) were added (final concentration 50 μg/ml) together with MgCl2 (final concentration 5 mmol·l^−1) to the homogenate and bacteria were lysed using French Press G-M™ High-Pressure Cell Press Homogenizer (1500 psi, 3 cycles). Lysate was spun 30,000 g for 20 minutes and supernatant was gently stirred with Ni-NTA resin (cat. #745400.25 Macherey-Nagel, Duren, Germany) for 30 minutes. The resin was poured into a chromatography column, washed with 50 ml buffer A (50 mmol·l^−1 TrisCl (pH 8.0), 800 mmol·l^−1 NaCl, 3 mmol·l^−1β-mercaptoethanol; 10% glycerol; 20 mmol·l^−1 imidazole) and 8-His-SUMO tagged STING proteins were eluted with 15 ml buffer A containing 300 mmol·l^−1 imidazole. The eluted proteins were cleaved with recombinant SUMO protease (80 pig/ml of protein solution, cat. #12588018, ThermoFisher, Waltham, USA). The proteins were further purified by size exclusion chromatography using HiLoad 16/60 Superdex 75 (cat. #28989333, GE Healthcare Bio-Sciences, Pittsburgh, USA) in 50 mmol·l^−1 Tris C1 buffer pH 7.4 containing 150 mmol·l^−1 NaCl, and 10% glycerol. Proteins were concentrated with Amicon® Ultra-15 10 K device (cat. # UFC901008, Merck Millipore, Billerica, USA) and flash frozen in liquid N2.
(§3) WT and AQ allelic forms of STING protein were diluted to the final concentration 0.1 mg/ml in 100 mmol·l^−1 TrisCl buffer pH 7.4 containing, 150 mmol·l^−1 NaCl, 1:500 SYPRO Orange (cat. # S6650, ThermoFisher, Waltham, USA) and 150 μM CDN or water. 20 μL solutions of the reaction mixtures were pipetted in triplicates into 96 well optical reaction plates and thermal denaturation of samples were performed on real time PCR cycler (LightCycler® 480 Instrument II—Roche, Basel, Switzerland). The first derivative of the thermal denaturation curves was performed to calculate denaturing temperatures of STING-CDN complexes and STING apoproteins. The thermal shift for each CDN was calculated by subtracting the average denaturing temperature of STING apoprotein from the average denaturing temperature of STING CDN complex.

[2] = molecular target: T1, AQ STING (G230A-R293Q) (Homo sapiens, UniProt Q86WV6, G230A/H232R/R293Q); test: Differential scanning fluorimetry (DSF) with AQ STING; type: binding; conditions: thermal shift, truncated human AQ STING 0.1 mg/ml, 150 μM CDN; for ΔTm at 150 µM: read-out: DSF ΔTm AQ STING
T1 construct: truncated human WT STING or AQ STING (amino acid residues 140-343); 8xHis (N, cleaved yes); SUMO (N, cleaved yes); made in house; host or cells: E. coli Rosetta-gami B (DE3)
T1 sequence (Q86WV6 140-343 G230A/H232R/R293Q): as the sequence (Q86WV6 140-343 H232R) above, with G91A, R154Q counted along it
Excerpt: as §1, §2, §3

Structure (SMILES)	DSF ΔTm WT STING [1] [°C]	DSF ΔTm AQ STING [2] [°C]	ΔTm at 150 µM [1] [°C]	ΔTm at 150 µM [2] [°C]
Nc1ncnc2c1ncn2[C@@H]1O[C@@H]2COP(=O)(O)OC3C(O)[C@@H](COP(=O)(O)OC2C1O)C[C@H]3n1cnc2c(=O)[nH]cnc21 (stereo partly drawn) [Compound 121, (6R,8R,15R,17R)-8-(6-amino-9H-purin-9-yl)-3,9,12,18-tetrahydroxy-17-(6-oxo-6,9-dihydro-1H-purin-9-yl)-2,4,7,11,13-pentaoxa-3λ^5,12λ^5-diphosphatricyclo[13.2.1.0^6,10]octadecane-3,12-dione]	9.4	17.0	–	–
CSc1ncnc2c1ncn2[C@@H]1O[C@@H]2COP(=O)(O)OC3C(O)[C@@H](COP(=O)(O)OC2C1O)C[C@H]3n1cnc2c(=O)[nH]c(N)nc21 (stereo partly drawn) [Compound 110, (6R,8R,15R,17R)-17-(2-amino-6-oxo-6,9-dihydro-1H-purin-9-yl)-3,9,12,18-tetrahydroxy-8-[6-(methylsulfanyl)-9H-purin-9-yl]-2,4,7,11,13-pentaoxa-3λ^5,12λ^5-diphosphatricyclo[13.2.1.0^6,10]octadecane-3,12-dione]	–	–	4.9	10.1
Nc1nc2c(ncn2[C@@H]2C[C@@H]3COP(=O)(O)OC4C(N)[C@H](n5cnc6c(N)ncnc65)O[C@@H]4COP(=O)(O)OC2C3O)c(=O)[nH]1 (stereo partly drawn) [Compound 109, (6R,8R,15R,17R)-9-amino-17-(2-amino-6-oxo-6,9-dihydro-1H-purin-9-yl)-8-(6-amino-9H-purin-9-yl)-3,12,18-trihydroxy-2,4,7,11,13-pentaoxa-3λ^5,12λ^5-diphosphatricyclo[13.2.1.0^6,10]octadecane-3,12-dione]	–	–	5.6	12.8
Nc1ncc2ncn([C@@H]3O[C@@H]4COP(=O)(O)OC5C(O)[C@@H](COP(=O)(O)OC4C3O)C[C@H]5n3cnc4c(=O)[nH]cnc43)c2n1 (stereo partly drawn) [Compound 119, (6R,8R,15R,17R)-8-(2-amino-9H-purin-9-yl)-3,9,12,18-tetrahydroxy-17-(6-oxo-6,9-dihydro-1H-purin-9-yl)-2,4,7,11,13-pentaoxa-3λ^5,12λ^5-diphosphatricyclo[13.2.1.0^6,10]octadecane-3,12-dione]	–	–	5.2	13.7
Nc1nc2c(ncn2[C@@H]2C[C@@H]3COP(=O)(O)OC4C(F)[C@H](n5cnc6c(N)nc(F)nc65)O[C@@H]4COP(=O)(O)OC2C3O)c(=O)[nH]1 (stereo partly drawn) [Compound 111, (6R,8R,15R,17R)-8-(6-amino-2-fluoro-9H-purin-9-yl)-17-(2-amino-6-oxo-6,9-dihydro-1H-purin-9-yl)-9-fluoro-3,12,18-trihydroxy-2,4,7,11,13-pentaoxa-3λ^5,12λ^5-diphosphatricyclo[13.2.1.0^6,10]octadecane-3,12-dione]	–	–	5.1	13
Nc1ncnc2c1ncn2[C@@H]1O[C@@H]2COP(=O)(O)OC3C(O)[C@@H](COP(=O)(O)OC2C1O)C[C@H]3n1cnc2c(=O)[nH]cnc21 (stereo partly drawn) [Compound 120, (6R,8R,15R,17R)-8-(6-amino-9H-purin-9-yl)-3,9,12,18-tetrahydroxy-17-(6-oxo-6,9-dihydro-1H-purin-9-yl)-2,4,7,11,13-pentaoxa-3λ^5,12λ^5-diphosphatricyclo[13.2.1.0^6,10]octadecane-3,12-dione]	–	–	10.6	18.3
Nc1nc(N)c2ncn([C@@H]3O[C@@H]4COP(=O)(O)OC5C(O)[C@@H](COP(=O)(O)OC4C3F)C[C@H]5n3cnc4c(=O)[nH]c(N)nc43)c2n1 (stereo partly drawn) [Compound 117, (6R,8R,15R,17R)-17-(2-amino-6-oxo-6,9-dihydro-1H-purin-9-yl)-8-(2,6-diamino-9H-purin-9-yl)-9-fluoro-3,12,18-trihydroxy-2,4,7,11,13-pentaoxa-3λ^5,12λ^5-diphosphatricyclo[13.2.1.0^6,10]octadecane-3,12-dione]	–	–	9.4	17
Nc1nc(N)c2ncn([C@@H]3O[C@@H]4COP(=O)(O)OC5C(O)[C@@H](COP(=O)(O)OC4C3O)C[C@H]5n3cnc4c(=O)[nH]c(N)nc43)c2n1 (stereo partly drawn) [Compound 105, (6R,8R,15R,17R)-17-(2-amino-6-oxo-6,9-dihydro-1H-purin-9-yl)-8-(2,6-diamino-9H-purin-9-yl)-3,9,12,18-tetrahydroxy-2,4,7,11,13-pentaoxa-3λ^5,12λ^5-diphosphatricyclo[13.2.1.0^6,10]octadecane-3,12-dione]	–	–	5.2	13.2
Cc1cn([C@@H]2O[C@@H]3COP(=O)(O)OC4C(O)[C@@H](COP(=O)(O)OC3C2O)C[C@H]4n2cnc3c(=O)[nH]c(N)nc32)c2ncnc(N)c12 (stereo partly drawn) [Compound 113, (6R,8R,15R,17R)-8-{4-amino-5-methyl-7H-pyrrolo[2,3-d]pyrimidin-7-yl}-17-(2-amino-6-oxo-6,9-dihydro-1H-purin-9-yl)-3,9,12,18-tetrahydroxy-2,4,7,11,13-pentaoxa-3λ^5,12λ^5-diphosphatricyclo[13.2.1.0^6,10]octadecane-3,12-dione]	–	–	6	11.6

Next, values leading:

DSF ΔTm WT STING [1] [°C]	DSF ΔTm AQ STING [2] [°C]	ΔTm at 150 µM [1] [°C]	ΔTm at 150 µM [2] [°C]	Structure (SMILES)
13.4	21.3	–	–	Nc1ncnc2c1ncn2[C@@H]1O[C@@H]2COP(=O)(S)O[C@@H]3[C@H](F)[C@@H](COP(=O)(S)O[C@H]2[C@H]1F)C[C@H]3n1cnc2c(=O)[nH]cnc21 (single isomer, unassigned) [Compound 128d]
11.4	18.2	–	–	Nc1ncnc2c1ncn2[C@@H]1O[C@@H]2COP(=O)(S)O[C@@H]3[C@H](F)[C@@H](COP(=O)(S)O[C@H]2[C@H]1F)C[C@H]3n1cnc2c(=O)[nH]cnc21 (single isomer, unassigned) [Compound 128c]
–	–	5.6	11.3	Nc1ncnc2c1c(I)cn2[C@@H]1O[C@@H]2COP(=O)(O)OC3C(O)[C@@H](COP(=O)(O)OC2C1O)C[C@H]3n1cnc2c(=O)[nH]cnc21 (stereo partly drawn) [Compound 124, (6R,8R,15R,17R)-8-{4-amino-5-iodo-7H-pyrrolo[2,3-d]pyrimidin-7-yl}-3,9,12,18-tetrahydroxy-17-(6-oxo-6,9-dihydro-1H-purin-9-yl)-2,4,7,11,13-pentaoxa-3λ^5,12λ^5-diphosphatricyclo[13.2.1.0^6,10]octadecane-3,12-dione]
–	–	9.3	16.5	Nc1ncnc2c1ncn2[C@@H]1O[C@@H]2COP(=O)(S)O[C@@H]3[C@H](F)[C@@H](COP(=O)(S)O[C@H]2[C@H]1F)C[C@H]3n1cnc2c(=O)[nH]cnc21 (single isomer, unassigned) [Compound 128a]
